Series [1] is described as follows: Toxicity against human Osteogenic sarcoma (Hos)cells. Conditions: read-out: LD50 (the source's name).
Series [2] concerns HOS. Description: Effective concentration required to inhibit growth of sub clone Hos colR cells. The series is classed as functional, cell-based. Particulars: Homo sapiens.

For `O=C(N[C@H]1CCc2cc(O)c(O)c(O)c2-c2ccc(=O)c(O)cc21)c1cc(O)c(O)c(O)c1`, the CC50 in series [1] is 18 µM. Besides, in series [2], the EC50 is 28 µM.

As for `O=C(N[C@H]1CCc2cc(O)c(O)c(O)c2-c2ccc(=O)c(O)cc21)C(F)(F)F`, in series [1], the CC50 was 14 µM. This compound had a half-maximal effective concentration (EC50) in series [2] of 26 µM.

In general, EC50 refers to the concentration giving half of the maximal effect.

Source of the values: ChEMBL document CHEMBL1126487, “Induction of reversible protein-linked DNA breaks in human osteogenic sarcoma cells by novel cytocidal colchicine derivatives which inhibit DNA topoisomerase II in vitro: Absence of cross-resistance in a colchicine-resistant sub-clone” (Bioorg Med Chem Lett, 1993).
